Patent US8795746B2, “Therapeutic use of mucin glycans” (The Board of Trustees of the Leland Stanford Junior …, priority 2011, dated 2014)

Key:
[1] = system: Bacteroides thetaiotaomicron (Bt); experiment: In vitro growth of Bt in minimal medium with the glycan as sole carbohydrate (OD600); type: cell-based; conditions: glycan 1.5% w/v as sole carbon source
Procedure: The transcriptome was analyzed near the midpoints of the two logarithmic growth phases in MM-HMO (n=2 biological replicates/growth phase, four datasets total). As a baseline for comparison, we used previously reported in vitro datasets of Bt grown in MM-glucose. […] Within these combined 253 genes (132 were commonly up regulated in both phases), 137 genes had ≧5-fold change in expression when compared to MM-glucose (see Table S1 for complete list of genes).
(§1) Bacterial Strains and Culture conditions. Type strains for Bacteroides species were used unless otherwise indicated. Bacteroides species were grown in tryptone-yeast extract-glucose (TYG) medium and minimal medium (MM) as described previously. Bif. infantis was grown in Man-Rogosa-Sharpe (MRS) medium (Oxoid LTD., Basingstoke, Hampshire, England) and minima medium consisting of modified MRS, which lacks glucose. […] OD600 was monitored using a BioTek PowerWave 340 plate reader (BioTek, Winoosky, Vt., United States) every 30 min, at 37° C. anaerobically (6% H2, 20% CO2, 74% N2).
Bacterial Strains and Culture Conditions. Type strains were used unless otherwise indicated. Bacteroides species were grown in tryptone-yeast extract-glucose (TYG) medium and minimal medium (MM). […] OD600 was monitored using a BioTek PowerWave 340 plate reader (BioTek, Winooski, Vt.) every 30 min, at 37_C anaerobically (6% H2, 20% CO2, 74% N2).

Bif. infantis ATCC15697 = experiment: In vitro growth of Bif. infantis in minimal medium with the glycan as carbon source; type: cell-based, Bifidobacterium longum subsp. infantis; conditions: minimal medium (modified MRS without glucose) with the glycan
Procedure: We next queried whether the redundancy in machinery employed for mucin and HMO consumption in Bt is also found in Bifidobacterium species that are well-adapted to HMO use. Therefore, we grew a strain known to be proficient at HMO-use, Bif. infantis ATCC15697 in MM-O-PMG.
as §1
B. thetaiotaomicron and Bifidobacterium infantis Differentially Consume the Structurally Similar Mucin Glycans and HMO. […] We grew an HMO-consuming Bifidobacterium strain that is abundant in the microbiota of breast-fed infants, Bi, in purified porcine mucin glycans (MM-O-PMG) to elucidate its competence in mucin consumption. […]
Bacterial Strains and Culture Conditions. […] OD600 was monitored using a BioTek PowerWave 340 plate reader (BioTek, Winooski, Vt.) every 30 min, at 37_C anaerobically (6% H2, 20% CO2, 74% N2).

[2] = system: Bt and Bi fecal community; experiment: Competitive colonization of gnotobiotic mice biassociated with Bt and B. infantis, LNnT in the water; type: in vivo, germ-free Swiss-Webster mice
Procedure: Two groups of 6-week-old germ-free mice were fed a polysaccharide-deficient diet, forcing a reliance on host mucus glycans for carbon and energy. One group received LNnT supplementation in the water (1% w/v; average consumption of 75 mg of LNnT daily), the control group received plain water.
After one day of LNnT feeding, both groups were colonized with equivalent quantities of Bt and Bi (10^8 CFU each). At day 6 post-inoculation, the group receiving LNnT was switched to normal water; at day 15 post-inoculation, LNnT was readministered for 3 additional days. Total bacterial colonization density was determined by assessing the CFUs in feces over the course of the 18 day experiment. […] LNnT supplementation was withdrawn on day 6 and colonization density was determined on days 7, 8, 9, 12, and 15 post colonization (1, 2, 3, 6, and 9 days after removing LNnT from the water). […] At day 3 post withdrawal of LNnT, Bi representation was 3.9±0.2% compared to 41.5±6.4% just prior to withdrawal (p=0.006, day 6 versus day 9, n=4 mice). LNnT was reintroduced into the water on day 15, and bacterial colonization was monitored at days 16, 17, and 18 post colonization. Two days after LNnT reintroduction, Bi expanded from 0.5±0.5% at day 15 to 49.9±2% at day 17 (p=0.012, day 15 versus day 17, n=4 mice). By day 18, Bi represented 25.9±9.6% of the community in LNnT-fed mice, compared to 1.9±1.5% in the control group (p=0.014, n=4 mice) (FIG. 16C).
Competitive Colonization of Gnotobiotic Mouse. Germ-free Swiss-Webster mice were reared in gnotobiotic isolators and fed an autoclaved polysaccharide-deficient diet in accordance with A-PLAC, the Stanford IACUC. Mice were biassociated using oral gavage (10^8 CFU of each species). Subsequent community enumerations from mice were determined from freshly collected feces, by selective plating of serial dilutions in RCM agar and BHI-blood agar supplemented with gentamicin ([…]). Significant differences between sample groups were determined using Student's t test. Synthetic LNnT (Glycom A/S, Denmark) was purified by crystallization to a final purity of >99%. Characterization was performed using multiple methods, including NMR (1D and 2D) mass spectrometry, and HPLC.

B. fragilis = experiment: Sialic acid content determination in MM-HMO after B. fragilis growth (DMB derivatization, RP-HPLC); type: cell-based, Bacteroides fragilis
Procedure: Ten of the 21 genes in the HMO-specific B. fragilis response were distributed within two loci that are dedicated to sialic acid acquisition and catabolism (FIG. 6B).
Sialic acid content determination. B. fragilis culture supernatant was isolated after growth in MM-HMO and clarified by centrifugation and filtration. Sialic acid concentrations were determined by the Glycotechnology Core Facility UCSD (University of California, San Diego, Calif., United States). Briefly, sialic acids were released by acid hydrolysis at 80 C for 3 hours in 2M acetic acid, collected by ultra-filtration, and derivatized with DMB (1,2-diamino-4,5-methylenedioxybenzene). The resulting fluorescent sialic acids derivatives were analyzed by RP-HPLC with on-line fluorescence detection, and identification was based on standards run in parallel.
(§2) Sialic Acid Content Determination. Culture supernatant was isolated after growth in MM-HMO and clarified by centrifugation and filtration. Sialic acid concentrations were determined by the Glycotechnology Core Facility UCSD (University of California, San Diego, San Diego, Calif.), using the […] DMB labeling kit protocol (Prozyme, San Leandro, Calif.).

Bt = experiment: Sialic acid content determination in MM-HMO after Bt growth; type: cell-based, Bacteroides thetaiotaomicron
Procedure: Twelve of the 21 HMO-specific Bf genes were distributed within two loci that are dedicated to sialic acid acquisition and catabolism (FIG. 16B). […] To confirm that Bf does in fact consume sialic acids from HMOs, sialic acid content in the MM-HMO after growth was measured before and after acid hydrolysis using derivatization with 1,2-diamino-4,5-methylenedioxybenzene followed by reverse phase HPLC.
as §2

Bt VPI-5482 genes / PULs = experiment: Whole genome transcriptional profiling of Bt (GeneChip) relative to MM-glucose; type: cell-based, Bacteroides thetaiotaomicron; conditions: compared to MM-glucose
Procedure: We grew Bt in minimal medium (MM) containing HMO (1.5% w/v) as the sole carbohydrate to investigate if this strain consumes human milk glycans in vitro. […] Next, we defined the transcriptional response of Bt during HMO consumption using whole genome transcriptional profiling with a custom Bt VPI-5482 GeneChip that represent >98% of this organism's protein coding genes. The transcriptome was analyzed near the midpoints of the two logarithmic growth phases in MM-HMO (n=2 biological replicates/growth phase, four datasets total). As a baseline for comparison, we used previously reported in vitro datasets of Bt grown in MM-glucose.
We wished to identify which portion of the observed Bt transcriptional response in MM-HMO was due to the complex oligosaccharides versus simple core sugars, lactose and galactose. Therefore, we performed transcriptional profiling of Bt grown in MM-galactose and MM-lactose (n=2 mid-log phase datasets for each of these monophasic growths; see FIG. 8 for growth curves and sampling timepoints).
Whole Genome Transcriptional Profiling. […] GeneChip data from bacteria growth in different carbon sources were normalized using R program by RMA-MS and statistical significance for differential gene expression was determined using SAM [45]. […]

Compound: CC(=O)N[C@H]1[C@H](O[C@H]2[C@@H](O)[C@@H](CO)O[C@@H](O[C@H]3[C@H](O)[C@@H](O)C(O)O[C@@H]3CO)[C@@H]2O)O[C@H](CO)[C@@H](O[C@@H]2O[C@H](CO)[C@H](O)[C@H](O)[C@H]2O)[C@@H]1O (mixture of isomers) [LNnT, lacto-N-neotetraose]
- growth of Bt [1]: did not
- growth of Bif. infantis (Bif. infantis ATCC15697): grew efficiently reaching a high OD
- time for Bi to drop to levels similar to controls after removal of LNnT ([2]; LNnT withdrawn on day 6): ≤ 2 days
- Bi relative to Bt in fecal community ([2]; day 6, LNnT 1% w/v in water, polysaccharide-deficient diet): 41.5±6.4%
- Bi representation ([2]; day 9, day 3 post withdrawal of LNnT): 3.9±0.2%
- Bi representation ([2]; day 15, before LNnT reintroduction): 0.5±0.5%
- Bi representation ([2]; day 17, two days after LNnT reintroduction): 49.9±2%
- Bi share of the community ([2]; day 18, LNnT-fed mice): 25.9±9.6%

Compound: CC(=O)N[C@H]1[C@H]([C@H](O)[C@H](O)CO)OC(O)(C(=O)O)C[C@@H]1O (stereo partly drawn) [Neu5Ac, N-acetylneuraminic acid]
- Neu5Ac content after B. fragilis growth (B. fragilis): completely depleted
- Neu5Ac use by Bt (Bt): unable to catabolize it

Compound: O=C[C@H](O)[C@@H](O)[C@@H](O)[C@H](O)CO [galactose]
- number of Bt genes up regulated at least 5-fold (Bt VPI-5482 genes / PULs): 40 genes

Compound: OC[C@H]1O[C@@H](O[C@H]2[C@H](O)[C@@H](O)C(O)O[C@@H]2CO)[C@H](O)[C@@H](O)[C@H]1O (stereo partly drawn) [lactose]
- number of Bt genes up regulated at least 5-fold (Bt VPI-5482 genes / PULs): 34 genes
